Reference: patent US4548750A, “Pyrimido[4,5-d][2]benzazepines useful as sedatives and anxiolytic agents” (Hoffmann-La Roche Inc., priority 1983, dated 1985)

Experiments:
mice = experiment: Footshock (blocking of footshock-induced fighting in pairs of mice); type: in vivo; conditions: Mus musculus; pairs of mice pretreated 1 hour prior to second shocking; 3 out of 3 pairs must be blocked from fighting; maximum dose 100 mg/kg
Description: A pair of mice is confined under a one liter beaker placed on a grid which presents shock to the feet. At least 5 fighting episodes are elicited in a two-minute period. Pairs of mice are marked and pretreated 1 hour prior to a second shocking. Logarithmic dose intervals are utilized up to a maximum of 100 mg/kg. At the 100% blocking dose, 3 out of 3 pairs must be blocked from fighting.

Toxicity (LD50) = conditions: in vivo; PO; species not given
Cats = experiment: Unanesthetized Cat (minimum symptoms, usually ataxia); type: in vivo; conditions: Felis catus, po, cats treated orally
Description: Cats are treated orally and observed for minimum symptoms--usually ataxia. One cat is used at a dose of 50 mg/kg. If activity is present, up to three cats/dose are used. Results are given as minimum effective dose.

male mice = experiment: Inclined Screen (paralyzing effects causing mice to slide off the screen); type: in vivo; conditions: Mus musculus; groups of 6 male mice; at least 4 hours observation; maximum dose 500 mg/kg; read-out: Inclined Screen (PD50)
Description: Groups of 6 male mice are given the test drug (maximum dose of 500 mg/kg) and then are left on the inclined screen at least 4 hours for observation of paralyzing effects severe enough to cause them to slide off the screen. If activity is observed, additional doses are taken until at least two are reached at which some, but not all of the animals slide off the screen. Doses at which mice fall off the screen due to toxicity or excitation are not included in the calculation of PD50.

Structure (SMILES): Cc1nc(Cl)c2c(n1)CN=C(c1ccccc1)c1cc(Cl)ccc1-2 [1,9-Dichloro-3-methyl-7-phenyl-5H-pyrimido[4,5-d][2]benzazepine]
- ED100 (mice): 10 mg/kg
- LD50 (Toxicity (LD50)): > 1000 mg/kg
- minimal effective dose (Cats): 10 mg/kg
- ED50 (male mice): 400 mg/kg
